Data published in patent US20090123581A1, “COLLAGEN CROSS-LINKING AGENTS ON DENTAL RESTORATIVE TREATMENT AND PREVENTIVE DENTISTRY” (THE BOARD OF TRUSTEES OF THE UNIVERSITY OF ILLINOIS, priority 2006, published 2009).

Assay: Ultimate tensile strength (UTS) of demineralized dentin after cross-linker treatment (Example 1)
Parameters: species or system human
Conditions: for Ultimate tensile strength, mean: pH 7.4
Source text: Fixation Processes: Ten sound freshly extracted human molars were used in this study. The teeth were thawed, cleaned of adhering soft tissues, and the occlusal surfaces were ground flat with #320 grit Silicon Carbide paper under running water to remove part of the enamel. Flattening of the occlusal surface by removal of the cusps enables accurate sectioning of samples in beam shape. Teeth were sectioned into 0.5±0.1 by 0.5±0.1 mm thick beams (n=20 beams per tooth) with a slow speed diamond wafering blade (Buehler-Series 15LC Diamond, Lake Bluff, Ill., USA) under constant water coolant (FIG. 1A).
The slabs were randomly divided into two groups: 1) undemineralized dentin and 2) demineralized dentin (FIG. 1A). In Group 2, dentin beams were immersed in 10% phosphoric acid solution (Fisher Scientific, New Jersey, N.J.) for a period of 5 hours. X-rays were taken from the specimens to verify complete tissue demineralization. Specimens were thoroughly rinsed with distilled water for 10 minutes to remove any residue of the phosphoric acid.
Specimens from groups 1 and 2 were subdivided according to the dentin treatment (FIG. 1B). In Treatment A, specimens were immersed in PBS solution (pH: 7.4) as a control. In Treatment B, specimens were immersed in 0.5% Proanthocyanidin (MegaNatural—Polyphenolics Ind.) PBS solution (PA) at a pH of 7.4. In Treatment C, specimens were immersed in 0.625% Genipin (Wako Pure Chemical Ind.) PBS solution (GE) at a pH of 7.4. In Treatment D, specimens were immersed in 5% glutaraldehyde solution (GD) (Fisher Scientific, New Jersey, N.J.) at a pH of 7.4. Specimens were kept in their respective solutions for 4 and 40 hours at room temperature. After the incubation periods, specimens were thoroughly rinsed with distilled and deionized water to remove any remains of cross-linking agents and buffer.
UTS testing: For UTS evaluation, the specimens were glued with a cyanoacrylate adhesive (Zapit—Dental Ventures of America Inc., Corona, Calif.) to a Ciucchi's jig, which was mounted on a universal testing machine (EZ Test, Shimazu Co., Kyoto, Japan) and subjected to microtensile testing at a crosshead speed of 1 mm/min (FIG. 1C). Means and standard deviations were calculated and expressed in microtensile bond strengths (MPa). Statistical analysis was performed using a two-way ANOVA and Fisher's PLSD tests (p<0.05).

Question: Which “Ultimate tensile strength, mean” value (4 hours in 0.5% PA, 0.625% GE or 5% GD) does the source give for `O=CCCCC=O` [GD, glutaraldehyde] here?
Answer: Its value is 13.1 MPa.

Question: And the “Ultimate tensile strength, mean” value (40 hours in 0.5% PA, 0.625% GE or 5% GD)?
Answer: Its value is 9.1 MPa.

Question: What about the “Ultimate tensile strength, pooled data” value (pooled over 4 and 40 hours, 0.5% PA, 0.625% GE or 5% GD) of the same compound?
Answer: Its value is 11.1 BC MPa.

Question: What about the “UTS values compared to the control group (statistics)” value (two-way ANOVA, Fisher's PLSD) of the same compound?
Answer: The value was “no statistically significant differences”.
